Test results from ChEMBL document CHEMBL3600336, “Design and synthesis of silicon-containing fatty acid amide derivatives as novel peroxisome proliferator-activated receptor (PPAR) agonists” (Bioorg Med Chem Lett, 2015).
The source made the active and inactive calls. The rule behind the calls is not given here.

How the values were obtained:
Type in all cases: cell-based
[1] = molecular target: T1, Peroxisome proliferator-activated receptor alpha (Homo sapiens) (UniProt Q07869); assay: Agonist activity at Gal4-tagged human PPARalpha expressed in HEK293 cells at 3 to 30 uM incubated for 16 to 20 hrs by luciferase and beta-galactosidase activity based reporter gene assay
T1 sequence (whole entry): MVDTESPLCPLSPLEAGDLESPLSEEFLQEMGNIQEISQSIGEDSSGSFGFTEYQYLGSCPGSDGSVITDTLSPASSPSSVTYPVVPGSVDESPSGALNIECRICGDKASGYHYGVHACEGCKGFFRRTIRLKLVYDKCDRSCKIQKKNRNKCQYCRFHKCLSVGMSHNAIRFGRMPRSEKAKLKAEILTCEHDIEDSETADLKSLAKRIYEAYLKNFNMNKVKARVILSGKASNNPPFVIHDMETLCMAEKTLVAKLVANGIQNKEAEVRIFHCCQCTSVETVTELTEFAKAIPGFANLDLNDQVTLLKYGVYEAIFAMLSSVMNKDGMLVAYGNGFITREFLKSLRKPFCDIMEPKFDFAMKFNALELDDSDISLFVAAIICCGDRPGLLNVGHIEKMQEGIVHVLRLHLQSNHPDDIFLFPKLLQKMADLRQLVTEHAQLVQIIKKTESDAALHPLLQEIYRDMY

[2] = molecular target: T2, Peroxisome proliferator-activated receptor gamma (Homo sapiens) (UniProt P37231); assay: Agonist activity at Gal4-tagged human PPARgamma expressed in HEK293 cells at 3 to 30 uM incubated for 16 to 20 hrs by luciferase and beta-galactosidase activity based reporter gene assay
T2 sequence (whole entry): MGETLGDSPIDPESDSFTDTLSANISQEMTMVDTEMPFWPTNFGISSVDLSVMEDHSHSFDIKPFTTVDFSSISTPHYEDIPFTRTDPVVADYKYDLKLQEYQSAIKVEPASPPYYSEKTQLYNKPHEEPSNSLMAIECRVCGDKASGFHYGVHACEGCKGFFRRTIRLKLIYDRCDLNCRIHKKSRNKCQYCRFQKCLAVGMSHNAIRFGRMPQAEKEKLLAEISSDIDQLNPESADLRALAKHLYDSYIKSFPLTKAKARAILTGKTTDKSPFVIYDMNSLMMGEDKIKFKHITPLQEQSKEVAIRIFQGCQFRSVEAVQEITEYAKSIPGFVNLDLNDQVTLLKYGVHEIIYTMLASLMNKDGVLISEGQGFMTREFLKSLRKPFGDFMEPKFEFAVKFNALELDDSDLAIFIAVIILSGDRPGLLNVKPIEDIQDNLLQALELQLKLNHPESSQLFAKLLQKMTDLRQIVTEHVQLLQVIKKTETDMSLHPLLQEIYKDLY

[3] = molecular target: T3, Peroxisome proliferator-activated receptor delta (Homo sapiens) (UniProt Q03181); assay: Agonist activity at Gal4-tagged human PPARdelta expressed in HEK293 cells at 3 to 30 uM incubated for 16 to 20 hrs by luciferase and beta-galactosidase activity based reporter gene assay
T3 sequence (whole entry): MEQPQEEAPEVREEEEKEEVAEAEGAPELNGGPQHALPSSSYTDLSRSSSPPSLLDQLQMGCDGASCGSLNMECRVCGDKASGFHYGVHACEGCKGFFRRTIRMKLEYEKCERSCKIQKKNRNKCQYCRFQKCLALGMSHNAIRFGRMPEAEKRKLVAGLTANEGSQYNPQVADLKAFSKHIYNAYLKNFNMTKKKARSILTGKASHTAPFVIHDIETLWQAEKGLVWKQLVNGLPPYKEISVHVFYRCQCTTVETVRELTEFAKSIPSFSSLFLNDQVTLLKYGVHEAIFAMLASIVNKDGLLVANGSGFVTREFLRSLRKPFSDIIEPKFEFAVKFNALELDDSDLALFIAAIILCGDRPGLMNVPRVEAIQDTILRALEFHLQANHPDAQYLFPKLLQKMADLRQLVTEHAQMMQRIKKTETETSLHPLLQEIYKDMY

[4] = test system: HEK293; assay: Toxicity against HEK293 cells assessed as reduction in cell viability at 30 uM; details: human, hek293, 30 µM

Row | SMILES | Activity [1] | Activity [2] | Activity [3] | Activity [4]
1 | CCCCCCCC[Si](CCCC)(CCCC)CCCCCCCC(=O)NCCO | inactive | inactive | inactive | –
2 | CCCCCCCC[Si](C)(C)CCCCCCCC(=O)NCCO | Active | inactive | Active | –
3 | CCCCCCCC[Si](CC)(CC)CCCCCCCC(=O)NCCO | Active | inactive | Active | –
4 | CCCCCCCCCCCCCCCCCC(=O)NCCO | inactive | inactive | – | –
5 | CCCCCCCC[Si](CC)(CC)CCCCCCC(=O)NCCO | inactive | inactive | inactive | –
6 | CCCCCCCC/C=C\CCCCCCCC(=O)NCCO | Active | – | – | –
7 | CCCCCCC[Si](CC)(CC)CCCCCCCC(=O)NCCO | inactive | inactive | Active | Toxic
8 | CCCCCCCC[Si](CCC)(CCC)CCCCCCCC(=O)NCCO | Active | inactive | Active | –
